Consider 32 molecules from patent US7943628B2, “Pyrimidine derivatives” (Pfizer Limited, priority 2005, dated 2011).

The target of this assay is T1, histamine H4 receptor (Homo sapiens, UniProt Q9H3N8).
T1 construct: expressed in transfected cells; host or cells: CHO cells
Put plainly: H4 binding, method 1 ([3H]-histamine filtration binding on CHO cell membranes). The conditions noted are these: H4 binding, method 1; Ki calculated from IC50 (Cheng-Prussoff). Here is the method: Cell pellets from CHO cells expressing the histamine H4 receptor were homogenised in ice-cold 50 mM Tris-HCl/0.5 mM CaCl2 buffer containing a protease inhibitor cocktail (Roche®, United Kingdom) using a ground glass homogeniser. Homogenates were centrifuged at 48000 g for 30 min at 4° C. The membrane pellet was resuspended in fresh buffer and the centrifugation step was repeated as described above. The membrane pellet was resuspended in 50 mM Tris-HCl in the same volume as the original cell pellet. Aliquots of membrane preparations were stored at −80° C. and were used for [^3H]-Histamine binding experiments.
Cell membranes (20-35 μg/well) were incubated for 90 minutes shaking at room temperature with 3 nM [2,5-^3H]Histamine dihydrochloride (30-60 Ci/mmol) in 50 mM Tris-HCl (pH 7.4), with or without competing H4 ligands. The reaction was terminated by rapid filtration through 0.5% polyethylenimine-soaked Unifilter GF/B plates (Packard) followed by three washes with 1 ml ice-cold 50 mM Tris-HCl. Filters were dried for 45 min at 45° C. and bound radiolabel was determined using scintillation counting techniques. Non-specific binding was defined with 10 μM JNJ7777120.

Structures are written as SMILES. Where a name gives a salt, the structure may show the parent alone.

T1 sequence (Q9H3N8 whole entry): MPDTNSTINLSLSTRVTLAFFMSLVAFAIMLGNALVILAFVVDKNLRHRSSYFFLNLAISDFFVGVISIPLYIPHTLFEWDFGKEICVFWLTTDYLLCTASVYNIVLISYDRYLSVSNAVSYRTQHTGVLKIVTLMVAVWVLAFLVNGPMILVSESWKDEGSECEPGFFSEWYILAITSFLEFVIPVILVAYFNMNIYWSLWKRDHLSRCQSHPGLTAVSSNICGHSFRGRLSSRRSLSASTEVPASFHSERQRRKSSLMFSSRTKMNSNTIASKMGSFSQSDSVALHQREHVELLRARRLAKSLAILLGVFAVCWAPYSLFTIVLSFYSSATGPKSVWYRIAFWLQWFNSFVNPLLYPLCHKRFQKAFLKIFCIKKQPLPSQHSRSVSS

Consider `CC[C@@H](C)Nc1cc(N2CC[C@@H](NC)C2)ncn1` [Example 146, 6-[(3R)-3-(Methylamino)pyrrolidin-1-yl]-N-[(1R)-1-methylpropyl]pyrimidin-4-amine], for which the Ki was 13.7 nM.

Consider `CCCCNc1cc(N2CC[C@@H](NC)C2)ncn1` [Example 147, N-Butyl-6-[(3R)-3-(methylamino)pyrrolidin-1-yl]pyrimidin-4-amine], for which the Ki was 17.3 nM.

Regarding `CN[C@@H]1CCN(c2cc(NC(C)(C)C)nc(N)n2)C1` [Example 148, N^4-(tert-Butyl)-6-[(3R)-3-(methylamino)pyrrolidin-1-yl]pyrimidine-2,4-diamine], the Ki was 4.89 nM.

With `CN[C@@H]1CCN(c2cc(NC3(C)CC3)nc(N)n2)C1` [Example 149, 6-[(3R)-3-(Methylamino)pyrrolidin-1-yl]-N^4-(1-methylcyclopropyl)pyrimidine-2,4-diamine], the Ki is 5.2 nM.

Regarding `CC[C@H](C)Nc1cc(N2CC[C@@H](NC)C2)nc(N)n1` [Example 151, 6-[(3R)-3-(Methylamino)pyrrolidin-1-yl]-N^4-[(1S)-1-methylpropyl]pyrimidine-2,4-diamine], the Ki was 12.4 nM.

For the molecule `CC[C@@H](C)Nc1cc(N2CC[C@@H](NC)C2)nc(N)n1` [Example 152, 6-[(3R)-3-(Methylamino)pyrrolidin-1-yl]-N^4-[(1R)-1-methylpropyl]pyrimidine-2,4-diamine], the Ki is 16.9 nM.

Regarding `CCC(C)Nc1cc(N2CC(NC)C2)ncn1` (centres unmarked) [Example 153, N-(sec-Butyl)-6-[3-(methylamino)azetidin-1-yl]pyrimidin-4-amine], the Ki was 11.5 nM.

As to `Nc1nc(NCC2CC2)cc(N2CCNCC2)n1` [Example 154, N^4-(Cyclopropylmethyl)-6-piperazin-1-ylpyrimidine-2,4-diamine], the Ki was 1.71 nM.

Consider `CN[C@@H]1CCN(c2cc(NCc3ccc(F)cc3)nc(N)n2)C1` [Example 155, N^4-(4-Fluorobenzyl)-6-[(3R)-3-(methylamino)pyrrolidin-1-yl]pyrimidine-2,4-diamine], for which the Ki is 1.78 nM.

With `CC(C)(C)CNc1cc(N2CCNCC2)nc(N)n1` [Example 156, N^4-(2,2-Dimethylpropyl)-6-piperazin-1-ylpyrimidine-2,4-diamine], the Ki was 2.44 nM.

On to `CNC1CN(c2cc(NCc3ccc(F)cc3F)nc(N)n2)C1` [Example 157, N^4-(2,4-Difluorobenzyl)-6-[3-(methylamino)azetidin-1-yl]pyrimidine-2,4-diamine], for which the Ki is 2.49 nM.

For the molecule `CCCC(C)Nc1cc(N2CC(NC)C2)nc(N)n1` (centres unmarked) [Example 158, 6-[3-(Methylamino)azetidin-1-yl]-N^4-(1-methylbutyl)pyrimidine-2,4-diamine], the Ki is 2.59 nM.

`CNC1CN(c2cc(NCC(C)(C)C)nc(N)n2)C1` [Example 159, N^4-(2,2-Dimethylpropyl)-6-[3-(methylamino)azetidin-1-yl]pyrimidine-2,4-diamine hydrochloride]: the Ki was 2.62 nM.

`CNC1CN(c2cc(N[C@H](C)C(C)C)nc(N)n2)C1` [Example 160, N^4-[(1R)-1,2-Dimethylpropyl]-6-[3-(methylamino)azetidin-1-yl]pyrimidine-2,4-diamine]: the Ki was 2.65 nM.

Take `CC[C@H](C)Nc1cc(N2CC(NC)C2)nc(N)n1` [Example 161, 6-[3-(Methylamino)azetidin-1-yl]-N^4-[(1S)-1-methylpropyl]pyrimidine-2,4-diamine]: the Ki was 2.75 nM.

Turning to `CCCNc1cc(N2CCNCC2)nc(N)n1` [Example 163, 6-Piperazin-1-yl-N^4-propylpyrimidine-2,4-diamine], the Ki was 3.78 nM.

In the case of `CCNc1cc(N2CC(NC)C2)nc(N)n1` [Example 164, N^4-Ethyl-6-[3-(methylamino)azetidin-1-yl]pyrimidine-2,4-diamine], the Ki was 3.82 nM.

Turning to `Nc1nc(NCC2CC2)cc(N2C[C@H]3CCCN[C@H]3C2)n1` [Example 165, N^4-(Cyclopropylmethyl)-6-[(4aR,7aR)-octahydro-6H-pyrrolo[3,4-b]pyridin-6-yl]pyrimidine-2,4-diamine], the Ki is 3.83 nM.

Consider `CC(C)(C)CNc1cc(N2C[C@@H]3CCCN[C@@H]3C2)nc(N)n1` [Example 166, N^4-(2,2-Dimethylpropyl)-6-[(4aS,7aS)-octahydro-6H-pyrrolo[3,4-b]pyridin-6-yl]pyrimidine-2,4-diamine], for which the Ki was 3.99 nM.

As for `CN[C@@H]1CCN(c2cc(NCC3CC3)nc(N)n2)C1` [Example 167, N^4-(Cyclopropylmethyl)-6-[(3R)-3-(methylamino)pyrrolidin-1-yl]pyrimidine-2,4-diamine], the Ki is 6.3 nM.

As for `CNC1CN(c2cc(NC(C)(C)C)nc(N)n2)C1` [Example 168, N^4-(tert-Butyl)-6-[3-(methylamino)azetidin-1-yl]pyrimidine-2,4-diamine], the Ki is 6.5 nM.

Turning to `CC(C)Nc1cc(N2C[C@@H]3CCCN[C@@H]3C2)nc(N)n1` [Example 169, N^4-Isopropyl-6-[(4aS,7aS)-octahydro-6H-pyrrolo[3,4-b]pyridin-6-yl]pyrimidine-2,4-diamine], the Ki is 6.77 nM.

`CCNc1cc(N2CC(N)C2)nc(N)n1` [Example 170, 6-(3-Aminoazetidin-1-yl)-N^4-ethylpyrimidine-2,4-diamine]: the Ki is 8.55 nM.

Take `Nc1nc(NCC2CC2)cc(N2CC(N)C2)n1` [Example 171, 6-(3-Aminoazetidin-1-yl)-N^4-(cyclopropylmethyl)pyrimidine-2,4-diamine]: the Ki is 9.21 nM.

Consider `Nc1nc(NC2CC2)cc(N2CCC3NCCC3C2)n1` (stereo not drawn) [Example 172, N^4-Cycopropyl-6-[(3aR*,7aS*)-octahydro-5H-pyrrolo[3,2-c]pyridin-5-yl]pyrimidine-2,4-diamine], for which the Ki is 9.3 nM.

On to `CNC1CN(c2cc(N3CCC(C)CC3)nc(N)n2)C1` [Example 173, 4-[3-(Methylamino)azetidin-1-yl]-6-(4-methylpiperidin-1-yl)pyrimidin-2-amine], for which the Ki is 10.1 nM.

Regarding `CN[C@@H]1CCN(c2cc(NCC3CCCC3)nc(N)n2)C1` [Example 174, N^4-(Cyclopentylmethyl)-6-[(3R)-3-(methylamino)pyrrolidin-1-yl]pyrimidine-2,4-diamine], the Ki was 10.6 nM.

In the case of `CCNc1cc(N2CCCNCC2)nc(N)n1` [Example 175, 6-(1,4-Diazepan-1-yl)-N^4-ethylpyrimidine-2,4-diamine], the Ki was 12.3 nM.

For the molecule `CN(C)CCNc1cc(NCC2CC2)nc(N)n1` [Example 176, N^4-(Cyclopropylmethyl)-N6-[2-(dimethylamino)ethyl]pyrimidine-2,4,6-triamine], the Ki is 15.1 nM.

`CN[C@H]1CCN(c2cc(NCC(C)(C)C)nc(N)n2)C1` [Example 177, N^4-(2,2-Dimethylpropyl)-6-[(3S)-3-(methylamino)pyrrolidin-1-yl]pyrimidine-2,4-diamine]: the Ki was 16 nM.

Turning to `Nc1nc(NC2CCC2)cc(N2C[C@@H]3CCCN[C@@H]3C2)n1` [Example 178, N^4-Cyclobutyl-6-[(4aS,7aS)-octahydro-6H-pyrrolo[3,4-b]pyridin-6-yl]pyrimidine-2,4-diamine], the Ki was 16.1 nM.

As for `CNC1CN(c2cc(NC3CCC3)ncn2)C1` [Example 179, N-Cyclobutyl-6-[3-(methylamino)azetidin-1-yl]pyrimidin-4-amine], the inhibitory constant (Ki) is 16.5 nM.

One may read the Ki as the equilibrium dissociation constant of an inhibitor or competing ligand from its target.
